Results reported in patent publication US6987093B2 (priority 2001, dated 2006).
In brackets after ≈: the same amount, converted by molar mass. Read-outs that look alike come from different tables or passages of the source.

What was measured:
H. influenzae [1] = settings: cited from earlier work
H. influenzae [2] = assay: Study 95-001 otitis media caused by H. influenzae; type: in vivo, human; settings: single intramuscular dose 50 mg/kg; 9 patients; follow-up
Procedure: Specimens for culture and susceptibility testing were obtained from the infected ear by tympanocentesis within 24 h of start of therapy. […] However, the study was evaluated using the breakpoints in the most recent set of guidelines.
To be a bacteriological cure, the MITT subject had to have a positive culture from the middle ear for S. pneumoniae, H influenzae, or M. catarrhalis. Eradication was defined as presumed eradication of pretreatment pathogen(s) based on signs/symptoms or unavailability of culturable material. All evaluable patients had only one of the bacterial species present at baseline. There was no bacteriological response data collected for 95–001. However, the clinical outcome by bacterial pathogen at follow-up (approximately 28 days after first visit) was collected. For patients with S. pneumoniae as the baseline pathogen, all treatment arms yielded 100% clinical cure when the investigators' evaluations that were missing are not included in the analysis. […] The comparator drug, ceftriaxone, had no failures out of 9 patients.

[3] = tested on: Haemophilus influenzae 54A1100; assay: Murine acute infection (peritonitis) model challenged with Haemophilus influenzae; type: in vivo, mouse; settings: for Mice Surviving/Total: Q.D. [1 day]
H. influenzae 54A1100 = assay: MIC determination, H. influenzae 54A1100; type: cell-based, Haemophilus influenzae; settings: H. influenzae 54A1100
Procedure: (§1) MIC Determinations. Streptococcus pneumoniae, S. pyogenes, E. faecalis, and H. influenzae MICs were determined using the broth microdilution procedure recommended by the NCCLS. Test trays were incubated at 35C without carbon dioxide. For testing of streptococci, the cation-adjusted Mueller-Hinton broth was supplemented with 2–3% lysed horse blood. For testing H. influenzae, freshly prepared Haemophilus Test Medium broth was used.
(§2) Bacterial Strains. • S. pneumoniae 02J1016, serotype 3, originally isolated from blood culture (strain P 4241) (MLS- and penicillin-susceptible). • S. pyogenes 02C0203, ATCC 12384, group A, type 3 (MLS-susceptible). • E. faecalis 03A1085, vancomycin susceptible clinically derived strain. • H. influenzae 54A1100, (43095 ATCC Fulghum strain) non-serotype B strain originally isolated from otitis media (macrolide and penicillin susceptible). • H. influenzae 54A1218, clinically derived non-serotype B strain (macrolide-susceptible, penicillin-resistant, TEM-1 beta-lactamase).

[4] = tested on: Streptococcus pneumoniae 02J1016; assay: Murine peritonitis model, Streptococcus pneumoniae; type: in vivo, mouse; settings: oral QD
[5] = tested on: Streptococcus pyogenes 02C0203; assay: Murine acute infection (peritonitis) model challenged with Streptococcus pyogenes; type: in vivo, mouse
S. pyogenes 02C0203 = assay: MIC determination, S. pyogenes; type: cell-based, Streptococcus pyogenes; settings: listed as Clanthromycin
Procedure: as §1, §2

[6] = tested on: Haemophilus influenzae 54A1100; assay: Gerbil middle ear (otitis media) infection model, ED50, H. influenzae 54A1100; type: in vivo; settings: oral QD; gerbil otitis media model
[7] = tested on: Streptococcus pneumoniae 02J1016; assay: Murine lung (pulmonary/pneumonia) infection model challenged with Streptococcus pneumoniae; type: in vivo, mouse
S. pneumoniae isolates = assay: Susceptibility (MIC) testing of trial S. pneumoniae isolates with PCR of resistance mechanism; type: cell-based, Streptococcus pneumoniae; settings: for MIC: Streptococcus pneumoniae
Source text: Samples of middle ear fluid were split for storage at a central laboratory and cultured locally. All pathogens isolated locally were subcultured and sent to a central laboratory for confirmation and susceptibility testing, performed by Kirby-Bauer disk-diffusion or MIC testing according to NCCLS standards.
Polymerase chain reaction (PCR) determination of resistance mechanisms in all the azithromycin-resistant pneumococci was done.
Cultures were taken for antimicrobial susceptibility testing and bacterial species were identified. Current NCCLS approved breakpoints for MICs and zone sizes were applied to all data irrespective of the breakpoint in use at the time of the study. The isolates from the clinical studies were sent to central laboratories for identification and susceptibility determination. The methods for agar diffusion disk tests are those recommended by NCCLS.
The susceptibility breakpoints for azithromycin were defined as follows: […]

[8] = oral QD, murine peritonitis model
[9] = 1.56 mg/kg/day P.O., 2 day regimen
[10] = 3.12 mg/kg/day P.O., 1 day regimen
[11] = 6.25 mg/kg/day P.O., 2 day regimen
[12] = 25.0 mg/kg/day P.O., 2 day regimen
[13] = 50.0 mg/kg/day P.O., 1 day regimen
[14] = oral QD, murine pneumonia model

## CC=CC1=C(C(=O)O)N2C(=O)[C@@H](NC(=O)[C@H](N)c3ccc(O)cc3)[C@H]2SC1 [Cefprozil]
H. influenzae [1]
  success rate less than control (amoxicillin/clavulanic acid); presumptive bacterial/clinical cure outcomes (i.e., clinical success) at 10–16 days post-therapy: 17% less than control (amoxicillin/clavulanic

## CO/N=C(\C(=O)N[C@@H]1C(=O)N2C(C(=O)O)=C(CSc3nc(=O)c(=O)[nH]n3C)CS[C@H]12)c1csc(N)n1 [Ceftriaxone]
H. influenzae [2]
  failures: no failures

## CC[C@H]1OC(=O)[C@H](C)[C@@H](O[C@H]2C[C@@](C)(OC)[C@@H](O)[C@H](C)O2)[C@H](C)[C@@H](O[C@@H]2O[C@H](C)C[C@H](N(C)C)[C@H]2O)[C@](C)(OC)C[C@@H](C)C(=O)[C@H](C)[C@@H](O)[C@]1(C)O [Clarithromycin]
[3]; 3.12 mg/kg/day
  Mice Surviving/Total: 0/10
[3]; 50 mg/kg/day
  Mice Surviving/Total: 2/10
[3]; 200 mg/kg/day
  Mice Surviving/Total: 0/10
[3]; Dosing Regimen 1 day
  Oral PD50: >200 mg/kg/day
[3]; […]
  Mice Surviving/Total: 0/10
[3]; one therapeutic dose (one day regimen), s.c.
  PD50: > 200 mg/kg
[3]; [8]
  ED50 One-Day Therapy: >200 mg/kg/therapy
  ED50 Three-Day Therapy: >200 mg/kg/therapy
  ED50 Two-Day Therapy: >200 mg/kg/therapy
H. influenzae 54A1100; listed as Clanthromycin
  MIC: 8 µg/mL (≈ 10.7 µM)
H. influenzae 54A1100; Haemophilus influenzae, read-out: MIC
  MIC: 8 µg/mL (≈ 10.7 µM)
[4]
  ED50 One-Day Therapy: 99.8 mg/kg/therapy
  ED50 Three-Day Therapy: 87.5 mg/kg/therapy
  ED50 Two-Day Therapy: 103.0 mg/kg/therapy
[5]; 0.20 mg/kg/day P.O., 3 day regimen
  Mice Surviving/Total: 0/10
[5]; 0.39 mg/kg/day P.O., 2 day regimen
  Mice Surviving/Total: 0/10
[5]; 0.78 mg/kg/day P.O., 1 day regimen
  Mice Surviving/Total: 0/10
[5]; 0.78 mg/kg/day P.O., 3 day regimen
  Mice Surviving/Total: 5/10
[5]; [9]
  Mice Surviving/Total: 8/10
[5]; [10]
  Mice Surviving/Total: 4/10
[5]; 3.12 mg/kg/day P.O., 3 day regimen
  Mice Surviving/Total: 9/10
[5]; [11]
  Mice Surviving/Total: 9/10
[5]; [12]
  Mice Surviving/Total: 8/10
[5]; [13]
  Mice Surviving/Total: 10/10
[5]; Dosing Regimen 1 day
  Oral PD50: 11.3 (3.1–19.4) mg/kg/day
[5]; Dosing Regimen 2 days
  Oral PD50: 2.2 (0.9–3.6) mg/kg/day
[5]; Dosing Regimen 3 days
  Oral PD50: 3.1 (2.6–3.7) mg/kg/day
[5]; […] P.O., 1 day regimen
  Mice Surviving/Total: 6/10
[5]; […] P.O., 3 day regimen
  Mice Surviving/Total: 10/10
[5]; [8]
  ED50 One-Day Therapy: 11.7^1 mg/kg/therapy
  ED50 Three-Day Therapy: 3.8 mg/kg/therapy
  ED50 Two-Day Therapy: 2.5 mg/kg/therapy
S. pyogenes 02C0203
  MIC: MIC 0.01-0.03 μg/ml
[6]
  ED50 One-Day Therapy: >200 mg/kg/therapy
  ED50 Three-Day Therapy: >200 mg/kg/therapy
  ED50 Two-Day Therapy: >200 mg/kg/therapy
[7]; 1.04 mg/kg/day P.O., 3 day regimen
  Mice Surviving/Total: 0/10
[7]; [9]
  Mice Surviving/Total: 0/10
[7]; [10]
  Mice Surviving/Total: 0/10
[7]; 4.2 mg/kg/day P.O., 3 day regimen
  Mice Surviving/Total: 0/10
[7]; [11]
  Mice Surviving/Total: 0/10
[7]; 16.7 mg/kg/day P.O., 3 day regimen
  Mice Surviving/Total: 0/10
[7]; [12]
  Mice Surviving/Total: 0/10
[7]; [13]
  Mice Surviving/Total: 1/10
[7]; 66.7 mg/kg/day P.O., 3 day regimen
  Mice Surviving/Total: 2/10
[7]; 100.0 mg/kg/day P.O., 2 day regimen
  Mice Surviving/Total: 1/10
[7]; 200.0 mg/kg/day P.O., 1 day regimen
  Mice Surviving/Total: 4/10
[7]; Dosing Regimen 1 day
  Oral PD50: >200 mg/kg/day
[7]; Dosing Regimen 2 days
  Oral PD50: >200 mg/kg/day
[7]; Dosing Regimen 3 days
  Oral PD50: >200 mg/kg/day
[7]; […] P.O., 1 day regimen
  Mice Surviving/Total: 1/10
[7]; all three q.d. regimens (1, 2, 3 days)
  PD50s: > 200 mg/kg
[7]; [14]
  ED50 One-Day Therapy: 270 mg/kg/therapy
  ED50 Three-Day Therapy: 338 mg/kg/therapy
  ED50 Two-Day Therapy: 327 mg/kg/therapy
[7]; previous data, BID administration over two days of therapy
  PD50s: 5 to 25 mg/kg

## CCC[C@@H]1C[C@@H](C(=O)N[C@@H]([C@H]2O[C@H](SC)[C@H](O)[C@@H](O)[C@H]2O)[C@H](C)Cl)N(C)C1 [clindamycin]
S. pneumoniae isolates; S. pneumoniae strains with erm(B)
  clindamycin MIC: 128 µg/mL
S. pneumoniae isolates; read-out: clindamycin MIC, S. pneumoniae strains confirmed as mef(A)
  MIC: < 0.06 µg/mL
S. pneumoniae isolates; read-out: clindamycin MIC, S. pneumoniae strains with erm(B)
  MIC: > 128 µg/mL
